Measurements from patent US4464385A, “Treatment of diabetic complications with hydantoins” (Alcon Laboratories, Inc., priority 1982, dated 1984).
Entries after “also recorded” stand apart in the source; their conditions may differ.

Assays:
aldose reductase = test: Aldose reductase inhibition / potency (general statement)
cataracts in rats = test: Prevention or retardation of cataracts in galactose-fed rats; type: in vivo, rat; details: for suppression of the formation of nuclear cataracts: 30 days; for % of Total Eyes, + (vacuole) / % of Total Eyes, - (Normal) / % of Total Eyes, N (nuclear cataract) / % of Total Eyes, S (snowflake) / Number of Eyes Observed, + (vacuole) / Number of Eyes Observed, - (Normal) / Number of Eyes Observed, N (nuclear cataract) / Number of Eyes Observed, S (snowflake) / Number of Eyes Observed, ±: 30% galactose diet, A,C,E 0.0025%, B,D 0.01%
Outline: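 Rats given test compound mixed into diet (by % of total feed weight; 0.01% designed to supply 20 mg/kg/day) ad libitum for thirty days after a two-day chow acclimatization, twelve animals per treatment. Eyes examined by handheld ophthalmoscope and/or penlight and each eye graded.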

dl-spiro-(6-methylthio-chroman-4,4'-imidazolidine)-2',5'-dione
potency relative to the resolved 6-fluoro compound (aldose reductase): potency similar to the resolved 6-fluoro compound | suppression of the formation of nuclear cataracts (cataracts in rats; 0.0025% in diet): greater than 80% | time of suppression, time to vacuole formation (cataracts in rats; 0.01% in diet): 13.5 days | time to snowflake / retardation of cataract, versus Sarges 0.0025% d-6-fluoro (cataracts in rats; 0.01% in diet): not significantly different from the Sarges 0.0025% d-6-fluoro control; also recorded: retard the progress of cataract formation slightly better than the Sarges control; also recorded: surpassed the positive control | time to vacuole formation, versus Sarges 0.0025% d-6-fluoro (cataracts in rats; 0.01% in diet): statistically lower (p<0.05) than the Sarges standard | suppression of the formation of nuclear cataracts (cataracts in rats; 0.01% in diet): 100% | % of Total Eyes, + (vacuole) (cataracts in rats; Study Day 2): 0% | % of Total Eyes, - (Normal) (cataracts in rats; Study Day 2): 100.0% | % of Total Eyes, N (nuclear cataract) (cataracts in rats; Study Day 2): 0% | % of Total Eyes, S (snowflake) (cataracts in rats; Study Day 2): 0% | Number of Eyes Observed, + (vacuole) (cataracts in rats; Study Day 2): 0 eyes | Number of Eyes Observed, - (Normal) (cataracts in rats; Study Day 2): 24 eyes | Number of Eyes Observed, N (nuclear cataract) (cataracts in rats; Study Day 2): 0 eyes | Number of Eyes Observed, S (snowflake) (cataracts in rats; Study Day 2): 0 eyes | Number of Eyes Observed, ± (cataracts in rats; Study Day 2): 0 eyes | % of Total Eyes, + (vacuole) (cataracts in rats; Study Day 3): 0% | % of Total Eyes, - (Normal) (cataracts in rats; Study Day 3): 100.0% | % of Total Eyes, N (nuclear cataract) (cataracts in rats; Study Day 3): 0% | % of Total Eyes, S (snowflake) (cataracts in rats; Study Day 3): 0% | Number of Eyes Observed, + (vacuole) (cataracts in rats; Study Day 3): 0 eyes | Number of Eyes Observed, - (Normal) (cataracts in rats; Study Day 3): 24 eyes | Number of Eyes Observed, N (nuclear cataract) (cataracts in rats; Study Day 3): 0 eyes | Number of Eyes Observed, S (snowflake) (cataracts in rats; Study Day 3): 0 eyes | Number of Eyes Observed, ± (cataracts in rats; Study Day 3): 0 eyes | % of Total Eyes, + (vacuole) (cataracts in rats; Study Day 4): 0% | % of Total Eyes, - (Normal) (cataracts in rats; Study Day 4): 16.7% | % of Total Eyes, N (nuclear cataract) (cataracts in rats; Study Day 4): 0% | % of Total Eyes, S (snowflake) (cataracts in rats; Study Day 4): 0% | Number of Eyes Observed, + (vacuole) (cataracts in rats; Study Day 4): 0 eyes | Number of Eyes Observed, - (Normal) (cataracts in rats; Study Day 4): 4 eyes | Number of Eyes Observed, N (nuclear cataract) (cataracts in rats; Study Day 4): 0 eyes | Number of Eyes Observed, S (snowflake) (cataracts in rats; Study Day 4): 0 eyes | Number of Eyes Observed, ± (cataracts in rats; Study Day 4): 20 eyes | % of Total Eyes, + (vacuole) (cataracts in rats; Study Day 5): 75.0% | % of Total Eyes, - (Normal) (cataracts in rats; Study Day 5): 0% | % of Total Eyes, N (nuclear cataract) (cataracts in rats; Study Day 5): 0% | % of Total Eyes, S (snowflake) (cataracts in rats; Study Day 5): 0% | Number of Eyes Observed, + (vacuole) (cataracts in rats; Study Day 5): 18 eyes | Number of Eyes Observed, - (Normal) (cataracts in rats; Study Day 5): 0 eyes | Number of Eyes Observed, N (nuclear cataract) (cataracts in rats; Study Day 5): 0 eyes | Number of Eyes Observed, S (snowflake) (cataracts in rats; Study Day 5): 0 eyes | Number of Eyes Observed, ± (cataracts in rats; Study Day 5): 6 eyes | % of Total Eyes, + (vacuole) (cataracts in rats; Study Day 6): 83.3% | % of Total Eyes, - (Normal) (cataracts in rats; Study Day 6): 0% | % of Total Eyes, N (nuclear cataract) (cataracts in rats; Study Day 6): 0% | % of Total Eyes, S (snowflake) (cataracts in rats; Study Day 6): 0% | Number of Eyes Observed, + (vacuole) (cataracts in rats; Study Day 6): 20 eyes | Number of Eyes Observed, - (Normal) (cataracts in rats; Study Day 6): 0 eyes | Number of Eyes Observed, N (nuclear cataract) (cataracts in rats; Study Day 6): 0 eyes | Number of Eyes Observed, S (snowflake) (cataracts in rats; Study Day 6): 0 eyes | Number of Eyes Observed, ± (cataracts in rats; Study Day 6): 4 eyes | % of Total Eyes, + (vacuole) (cataracts in rats; Study Day 8): 100.0% | % of Total Eyes, - (Normal) (cataracts in rats; Study Day 8): 0% | % of Total Eyes, N (nuclear cataract) (cataracts in rats; Study Day 8): 0% | % of Total Eyes, S (snowflake) (cataracts in rats; Study Day 8): 0% | Number of Eyes Observed, + (vacuole) (cataracts in rats; Study Day 8): 24 eyes | Number of Eyes Observed, - (Normal) (cataracts in rats; Study Day 8): 0 eyes | Number of Eyes Observed, N (nuclear cataract) (cataracts in rats; Study Day 8): 0 eyes | Number of Eyes Observed, S (snowflake) (cataracts in rats; Study Day 8): 0 eyes | Number of Eyes Observed, ± (cataracts in rats; Study Day 8): 0 eyes | % of Total Eyes, + (vacuole) (cataracts in rats; Study Day 10): 79.2% | % of Total Eyes, - (Normal) (cataracts in rats; Study Day 10): 0% | % of Total Eyes, N (nuclear cataract) (cataracts in rats; Study Day 10): 0% | % of Total Eyes, S (snowflake) (cataracts in rats; Study Day 10): 20.8% | Number of Eyes Observed, + (vacuole) (cataracts in rats; Study Day 10): 19 eyes | Number of Eyes Observed, - (Normal) (cataracts in rats; Study Day 10): 0 eyes | Number of Eyes Observed, N (nuclear cataract) (cataracts in rats; Study Day 10): 0 eyes | Number of Eyes Observed, S (snowflake) (cataracts in rats; Study Day 10): 5 eyes | Number of Eyes Observed, ± (cataracts in rats; Study Day 10): 0 eyes | % of Total Eyes, + (vacuole) (cataracts in rats; Study Day 12): 58.4% | % of Total Eyes, - (Normal) (cataracts in rats; Study Day 12): 0% | % of Total Eyes, N (nuclear cataract) (cataracts in rats; Study Day 12): 0% | % of Total Eyes, S (snowflake) (cataracts in rats; Study Day 12): 41.6% | Number of Eyes Observed, + (vacuole) (cataracts in rats; Study Day 12): 14 eyes | Number of Eyes Observed, - (Normal) (cataracts in rats; Study Day 12): 0 eyes | Number of Eyes Observed, N (nuclear cataract) (cataracts in rats; Study Day 12): 0 eyes | Number of Eyes Observed, S (snowflake) (cataracts in rats; Study Day 12): 10 eyes | Number of Eyes Observed, ± (cataracts in rats; Study Day 12): 0 eyes | % of Total Eyes, + (vacuole) (cataracts in rats; Study Day 14): 41.6% | % of Total Eyes, - (Normal) (cataracts in rats; Study Day 14): 0%
